Test system: MDA-MB-231 cells
Assay: GSH levels and glutathione- and oxidative stress-related enzyme activities in MDA-MB-231 cells growing in vivo
Set-up: species or system human
Conditions: MDA-MB-231, in vivo Pter, day 35
Description: To measure enzyme activity, isolated tumor cells were homogenized in 0.1 M phosphate buffer (pH 7.2) at 4° C. GCL and GSS activities were measured as described previously (Obrador, E. et al. Hepatology 35, 74-81 (2002)). GPX (selenium dependent) activity was measured as described by Flohé and Gunzler (Flohe, L. & Gunzler, W. A. Methods Enzymol 105, 114-121 (1984)) using H2O2 as a substrate. GSR activity was determined as described by Akerboom and Sies (Akerboom, T. P. et al, Bull Eur Physiopathol Respir 17 Suppl, 221-227 (1981)). GGT activity was measured as described previously (Obrador, E. et al. Hepatology 35, 74-81 (2002)). GST activity was measured using an assay kit from Sigma. TXNRD activity, defined by the concentration of sodium-lipoate (disulfide) reduced to dehydrolipoate (dithiol) per milligram protein, was measured as previously described (Javvadi, P. et al. Cancer Res 70, 1941-1950 (2010)). SOD activity was measured as described by Flohé and Otting (Flohe, L. & Otting, F. Methods Enzymol 105, 93-104 (1984).) using 2 mM cyanide in the assay medium to distinguish mangano-type enzyme (SOD2) from the cuprozinc type (SOD1). CAT activity was analyzed as described by Aebi (Aebi, H. Methods Enzymol 105, 121-126 (1984)). NOX activity was measured by chemiluminescence following the methodology of Wind et al. (Wind, S. et al. Comparative pharmacology of chemically distinct NADPH oxidase inhibitors. Br J Pharmacol 161, 885-898 (2010)). Protein concentration was determined with the Pierce BCA protein assay (Fisher Scientific, Waltham, Mass.).
GSH, GSSG, NADP^+ and NADPH Determination.
GSH and GSSG were determined, following procedures previously described (Obrador, E. et al. PLoS One 9, e96466 (2014)), by LC/MS using the same equipment described above for pterostilbene determination. Cell processing was performed according to published methodology, where rapid N-ethylmaleimide derivatization was used to prevent GSH auto-oxidation (Asensi, M. et al. Anal Biochem 217, 323-328 (1994)). NADP^+ and NADPH were quantitated using an assay kit from Sigma (St. Louis, Mo.).
Isolation of Tumor Cells from Mouse Xenografts Using Enzymatic Digestion and a double Ficoll gradient.
To maximize the amount of isolated cells, avoiding the use of RFP-transfected cells and subsequent laser microdissection, an alternative methodology was set up. To maximize cell yield and viability the following combination of enzymes was used: collagenase III (200 U/ml; Sigma-Aldrich), DNase I (200 U/ml; Sigma-Aldrich) and trypsin (5 mg/ml; Invitrogen), and a non-enzymatic dissociation buffer (NEDB, Invitrogen). Briefly, mice were killed, and tumors were removed (avoiding skin, muscle and fat) into cold culture media and processed immediately. The tumors were minced into 1-3 mm fragments, which were then incubated with the dissociation solution (see above) for 30 min at 37° C. The tumor fragments were mixed up and down every 10 min using a […] micropipette with a tip cut to a diameter adapted to tissue fragment size. After each incubation period, the fragments were filtered through a […] nylon mesh cell strainer (BD Biosciences, San Diego, Calif., USA). The released cells were centrifuged at 1200 r.p.m. for 2 min and stored in cold CO2-independent medium with 30% FCS at […]. Fresh dissociation solution was added to the remaining tissue fragments for 30 min. Dissociation was stopped when no additional cells were released. The fragments were pushed through a sieve and all cells from all incubation periods were pooled and counted.
The dissociated cells were layered onto a double Ficoll gradient (Histopaque; Sigma-Aldrich; densities 1.077 and 1.119) and spun at 700 g for 30 min at room temperature. Cells removed from both interfaces were pooled and washed two times in CO2-independent medium and stored at 4° C. Debris and red blood cell elimination was improved with the dual-density gradient. […]

With COc1cc(/C=C/c2ccc(O)cc2)cc(OC)c1 [Pter, trans-3,5-dimethoxy-4′-hydroxystilbene] the CAT was 0.6 ± 0.2 mU/10^6 cells, the GCL was 66 ± 18 mU/10^6 cells and the GSH was 11.5 ± 2.0 nmol/10^6 cells. For the same molecule, the GSS was 7.7 ± 1.2 mU/10^6 cells, the GSSG was 0.2 ± 0.05 nmol/10^6 cells and the SOD1 was 0.3 ± 0.08 U/10^6 cells. It also gave an SOD2 of 0.03 ± 0.01 U/10^6 cells.

— US11179348B2, “Combination comprising pterostilbene for the treatment of cancer” (FUNDACIÓN UNIVERSIDAD CATÓLICA DE VALENCIA SAN VICENTE …, priority 2015, dated 2021)
